Results on 14 compounds are retold here after patent publication US9617251B2, “Indanylaminopyridylcyclopropanecarboxylic acids, pharmaceutical compositions and uses thereof” (BOEHRINGER INGELHEIM INTERNATIONAL GMBH, priority 2015, dated 2017).

Converted amounts (≈) assume the structure as drawn.

The nature of series [1]: Chemical stability: degradation kinetics in acidic aqueous media (pH ca. 1.2), HPLC recovery. The format is physicochemical. To be noted: pH value of ca. 1.2 (acetonitrile/0.1 M aqueous HCl 2:3), 37° C. As for the experimental part: Degradation kinetics is used to simulate chemical stability of compounds in the acidic part of the gastro intestinal tract. […] Their application as medical drugs to treat human diseases is therefore less restricted and troublesome.
The chemical stability of the compounds of the invention at pH value of ca. 1.2 is determined as follows:
Compound is dissolved in an HPLC vial either in a mixture of acetonitrile/0.1 M aqueous HCl (2:3; pH ca. 1.2) or in a mixture of acetonitrile/McIlvaine buffer pH 7.4 (2:3) to get a concentration of approximately 0.25 mg/ml. The vial was then transferred into an HPLC autosampler system and maintained at a temperature of 37° C. A first sample is taken and injected immediately into a standard HPLC system with a UV DAD detector. Further samples are injected after 2, 4, 6, 8 and 10 hours. Amount of degraded compound is measured by determining the recovery rate of compound [%] for each injection using an HPLC standard gradient method. Therefore the peak area of the main peak for the first injection (AUt0) is determined and set as 100%. Peak area of the main peak is determined also for the further injections (AUtn, n=2, 4, 6, 8, 10) and expressed as fraction of (AUt0)/(AUtn, n=2, 4, 6, 8, 10) [%].

Series [2] addresses T1, cytochrome P450 2C9-isoenzyme (Homo sapiens, UniProt P11712).
T1 construct: from tissue; host or cells: human liver microsomes
The series can be described thus: Inhibition of CYP-2C9 (hydroxylation of diclofenac, human liver microsomes). It counts as in vitro ADME. To be noted: CYP-2C9, human liver microsomes, diclofenac 10 μM, 37° C. The gist of the method:
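Human liver microsomes (0.1 mg/mL) in 0.1 M TRIS, 5 mM MgCl2, 10 μM diclofenac, 37 °C, duplicate five-point compound series; started with 1 mM NADPH, quenched by cooling and acetonitrile. Hydroxydiclofenac quantified by LC-MS/MS against 13C6 internal standard; IC50 by least-squares fit with slope and background terms.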
Background: Liver microsomes are a subcellular fraction often used to study metabolism.

Series [3] in a line: Aqueous solubility in buffer vs acetonitrile/water (1/1), LC-UV. The format is physicochemical. To be noted: kinetic from dmso stock, buffer pH 2.2, 24 h shaking, 2.5% DMSO. The essentials:
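Aliquots of 10 mM DMSO stock diluted into buffer or acetonitrile/water (1/1), shaken 24 h, filtered and quantified by LC-UV; buffer amount compared with acetonitrile/water amount. Range 0.001-0.125 mg/mL at 2.5% DMSO; ">" marks over 90% dissolved.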

Series [4] concerns the target T2, cytochrome P450 2C8-isoenzyme (Homo sapiens, UniProt P10632).
T2 construct: from tissue; host or cells: human liver microsomes
T2 sequence (P10632 1-490): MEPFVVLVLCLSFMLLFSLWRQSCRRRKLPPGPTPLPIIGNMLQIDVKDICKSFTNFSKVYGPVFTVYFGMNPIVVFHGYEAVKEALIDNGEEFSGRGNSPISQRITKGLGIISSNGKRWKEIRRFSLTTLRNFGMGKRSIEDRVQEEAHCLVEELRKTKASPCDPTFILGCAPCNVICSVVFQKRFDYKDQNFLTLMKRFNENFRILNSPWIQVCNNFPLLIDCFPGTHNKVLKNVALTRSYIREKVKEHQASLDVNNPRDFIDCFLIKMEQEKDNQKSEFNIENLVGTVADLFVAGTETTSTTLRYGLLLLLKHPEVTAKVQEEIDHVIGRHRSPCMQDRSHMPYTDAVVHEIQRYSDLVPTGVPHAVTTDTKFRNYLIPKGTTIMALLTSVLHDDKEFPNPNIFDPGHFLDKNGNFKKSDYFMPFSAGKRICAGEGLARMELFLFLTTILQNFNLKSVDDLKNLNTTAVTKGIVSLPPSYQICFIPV
Description: Inhibition of CYP-2C8 (deethylation of amodiaquine, human liver microsomes). To be noted: CYP-2C8, human liver microsomes, amodiaquine 1 μM, 37° C. The format is in vitro ADME. The essentials:
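Amodiaquine deethylation (1 μM substrate) was measured at 37 °C in human liver microsomes (0.05 mg/mL), 0.1 M Tris, 5 mM MgCl2, and started with 1 mM NADPH. Desethylamodiaquine was quantified by LC-MS/MS against a d5 internal standard. IC50 came from five concentrations, typically top 10–50 μM with 1:4 dilutions, fitted by least squares to a slope-and-background model.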

Series [5] addresses human GPR40 receptor (Homo sapiens, UniProt O14842). The series can be described thus: IP1 accumulation measurements using the IPOne assay system (1321N1 cells stably expressing human GPR40 receptor). The format is cell-based. To be noted: 1321N1 cells expressing human GPR40, 1 h stimulation at 37° C. The essentials:
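Cells were stimulated with compounds for 1 h at 37 °C in HEPES-buffered stimulation buffer containing 50 mM LiCl, pH 7.4. IP1 was then detected by HTRF (IP1-d2/anti-IP1 cryptate, 1 h at room temperature), and 665/615 ratios were converted using an IP1 reference curve, with pEC50 obtained by variable-slope sigmoidal fitting.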

Chain of human GPR40 receptor (O14842 whole entry): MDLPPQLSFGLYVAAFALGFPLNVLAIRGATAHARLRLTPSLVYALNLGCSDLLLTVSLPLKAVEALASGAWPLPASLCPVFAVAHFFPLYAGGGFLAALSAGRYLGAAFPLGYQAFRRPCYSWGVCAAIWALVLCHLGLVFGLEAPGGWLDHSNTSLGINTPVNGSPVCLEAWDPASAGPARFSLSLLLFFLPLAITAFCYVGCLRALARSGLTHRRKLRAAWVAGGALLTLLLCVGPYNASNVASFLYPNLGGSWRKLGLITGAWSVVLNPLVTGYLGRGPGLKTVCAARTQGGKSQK
T1 sequence (P11712 whole entry): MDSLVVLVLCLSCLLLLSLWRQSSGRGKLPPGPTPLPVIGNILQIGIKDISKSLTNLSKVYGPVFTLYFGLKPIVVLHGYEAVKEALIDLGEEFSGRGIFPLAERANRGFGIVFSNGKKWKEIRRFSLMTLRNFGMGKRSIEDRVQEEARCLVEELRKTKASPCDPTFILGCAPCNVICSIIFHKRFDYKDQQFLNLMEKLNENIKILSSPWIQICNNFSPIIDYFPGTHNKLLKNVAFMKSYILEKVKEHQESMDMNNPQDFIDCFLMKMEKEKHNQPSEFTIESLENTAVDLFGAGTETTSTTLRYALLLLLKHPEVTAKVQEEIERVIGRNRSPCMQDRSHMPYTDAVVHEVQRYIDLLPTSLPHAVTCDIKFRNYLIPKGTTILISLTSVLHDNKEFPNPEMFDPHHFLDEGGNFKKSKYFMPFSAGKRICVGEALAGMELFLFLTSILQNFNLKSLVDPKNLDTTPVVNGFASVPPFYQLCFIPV

For the compound `Cc1cc(-c2ccnn2C)cc(C)c1-c1ccc(F)c2c1CC[C@H]2Nc1ccc([C@H]2C[C@@H]2C(=O)O)cn1` [Example 31], the “Amount of degradation after 2 h” value in series [1] was less than 0.5%. The IC50 came out at 27 µM in series [2] and 9 µM in series [4]. For the same compound, the concentration in solution in series [3] (solubility at 24 h) came to 93 µg/mL (≈ 187 µM). The same compound returned an EC50 in series [5] of 0.031 µM.

`Cc1cc(OCC(C)(C)C#N)cc(C)c1-c1ccc(F)c2c1CC[C@H]2Nc1ccc([C@H]2C[C@@H]2C(=O)O)cn1` [Example 35]: the “Amount of degradation after 2 h” value in series [1] is less than 0.5%. The IC50 in series [2] came to 34 µM; in series [4], 18 µM. This compound also displayed a solubility at 24 h in series [3] of 59 µg/mL (≈ 115 µM). In addition, in series [5], the 50% effective concentration (EC50) was 0.023 µM.

As to `Cc1cc(-c2ccn(C)c(=O)c2)cc(C)c1-c1ccc(F)c2c1CC[C@H]2Nc1ccc([C@H]2C[C@@H]2C(=O)O)cn1` [Example 36], the “Amount of degradation after 2 h” value in series [1] is on record as less than 0.5%. Moreover, the IC50 in series [2] was greater than 50 µM; in series [4], 10 µM. In series [3], this compound came in with a solubility at 24 h of 107 µg/mL (≈ 204 µM). In series [5], this compound showed an EC50 of 0.006 µM.

As for `Cc1cc(O)cc(C)c1-c1ccc(F)c2c1CC[C@H]2Nc1ccc([C@H]2C[C@@H]2C(=O)O)cn1` [Example 41], in series [1], the “Amount of degradation after 2 h” value is less than 1.5%. For the same compound, the values for the IC50 in series [2] and in series [4] were greater than 50 µM and 34 µM, respectively. Moreover, in series [3], the concentration in solution (solubility at 24 h) came to 103 µg/mL (≈ 238 µM). The EC50 in series [5] turned out to be 0.033 µM.

Consider `N#CC1(c2ccccc2-c2ccc(F)c3c2CC[C@H]3Nc2ccc([C@H]3C[C@@H]3C(=O)O)cn2)CC1` [Example 46], for which the “Amount of degradation after 2 h” value in series [1] is reported as less than 0.5%. Moreover, the values for the IC50 in series [2] and in series [4] were 9 µM and 32 µM, respectively. This compound came in with a solubility at 24 h in series [3] of 85 µg/mL (≈ 187 µM). The same compound displayed an EC50 in series [5] of 0.629 µM.

On to `CC(C)c1ccccc1-c1ccc(F)c2c1CC[C@H]2Nc1ccc([C@H]2C[C@@H]2C(=O)O)cn1` [Example 47], for which the “Amount of degradation after 2 h” value in series [1] is given as less than 0.5%. The IC50 was 14 µM in series [2] and 12 µM in series [4]. In series [3], this compound showed a solubility at 24 h of 72 µg/mL (≈ 167 µM). The EC50 in series [5] worked out at 0.026 µM.

For the compound `O=C(O)[C@H]1C[C@@H]1c1ccc(N[C@@H]2CCc3c(-c4c(Cl)cccc4Cl)ccc(F)c32)nc1` [Example 50], in series [1], the “Amount of degradation after 2 h” value is recorded as less than 1.0%. The IC50 amounted to 22 µM in series [2] and 21 µM in series [4]. For the same compound, the solubility at 24 h in series [3] came out at 69 µg/mL (≈ 151 µM). For the same compound, the midpoint of the response in series [5], the EC50, lay at 0.013 µM.

With `COc1cc(F)c(-c2ccc(F)c3c2CC[C@H]3Nc2ccc([C@H]3C[C@@H]3C(=O)O)cn2)c(F)c1` [Example 56], in series [1], the “Amount of degradation after 2 h” value is less than 0.5%. In addition, the IC50 in series [2] is 28 µM; in series [4] it was 33 µM. For the same compound, the concentration in solution in series [3] (solubility at 24 h) came to 73 µg/mL (≈ 161 µM). The compound further had an EC50 in series [5] of 0.151 µM.

For the compound `Nc1cc(F)c(-c2ccc(F)c3c2CC[C@H]3Nc2ccc([C@H]3C[C@@H]3C(=O)O)cn2)c(F)c1` [Example 58], the “Amount of degradation after 2 h” value in series [1] was less than 0.5%. The IC50 in series [2] and in series [4] was greater than 50 µM in each case. In addition, the solubility at 24 h in series [3] is 107 µg/mL (≈ 243 µM). In series [5], this compound came in with an EC50 of 0.462 µM.

With `Cc1cc(OCC2(O)CCOCC2)cc(C)c1-c1ccc(F)c2c1CC[C@H]2Nc1ccc([C@H]2C[C@@H]2C(=O)O)cn1` [Example 63], the “Amount of degradation after 2 h” value in series [1] is less than 0.5%. The IC50 in series [2] and in series [4] was greater than 50 µM each time. Further, the solubility at 24 h in series [3] was 118 µg/mL (≈ 216 µM). This compound showed an EC50 in series [5] of 0.02 µM.

`CNC(=O)c1cc(C)c(-c2ccc(F)c3c2CC[C@H]3Nc2ccc([C@H]3C[C@@H]3C(=O)O)cn2)c(C)c1` [Example 66]: in series [1], the “Amount of degradation after 2 h” value is listed as less than 1.0%. The IC50 in series [2] and in series [4] was greater than 50 µM in each case. In series [3], this compound yielded a solubility at 24 h of 115 µg/mL (≈ 243 µM). The compound also came in with an EC50 in series [5] of 0.039 µM.

As to `COc1cc(-c2cc(C)c(-c3ccc(F)c4c3CC[C@H]4Nc3ccc([C@H]4C[C@@H]4C(=O)O)cn3)c(C)c2)ccn1` [Example 72], the “Amount of degradation after 2 h” value in series [1] is less than 0.5%. Also, the values for the IC50 in series [2] and in series [4] were 18 µM and 8 µM, respectively. The same compound came in with a solubility at 24 h in series [3] of 101 µg/mL (≈ 193 µM). In series [5], this compound registered an EC50 of 0.006 µM.

Consider `O=C(O)[C@H]1C[C@@H]1c1ccc(N[C@@H]2CCc3c(-c4ccccc4C(F)(F)F)ccc(F)c32)nc1` [Example 74], for which the “Amount of degradation after 2 h” value in series [1] is given as less than 1.0%. The IC50 worked out at 14 µM in series [2] and 21 µM in series [4]. Also, the concentration in solution in series [3] (solubility at 24 h) came to 82 µg/mL (≈ 180 µM). The compound further returned an EC50 in series [5] of 0.049 µM.

On to `Cc1cc(C(=O)N(C)C)cc(C)c1-c1ccc(F)c2c1CC[C@H]2Nc1ccc([C@H]2C[C@@H]2C(=O)O)cn1` [Example 75], for which the “Amount of degradation after 2 h” value in series [1] is reported as less than 0.5%. In addition, the IC50 in series [2] and in series [4] was greater than 50 µM each time. Moreover, the concentration in solution in series [3] (solubility at 24 h) was 117 µg/mL (≈ 240 µM). For the same compound, in series [5], the midpoint of the response, the EC50, lay at 0.186 µM.

As a reminder, the IC50 is the point on the concentration scale where inhibition reaches its midpoint. Low values mean greater potency, high ones weaker potency. As usually defined, the solubility is the concentration that dissolves in the medium under given conditions. Low readings indicate a poorly soluble substance, high ones a readily soluble substance. The EC50 is the concentration at which the effect is half-maximal.
